Experimental data from article PMC4731795, “New α-glucosidase inhibitors from marine algae-derived Streptomyces sp. OUCMDZ-3434” (Scientific Reports, 2016).

Columns and labels:
[1] = system: α-glucosidase; assay: Kinetics of α-glucosidase inhibition (Lineweaver-Burk plot analysis); type: biochemical; conditions: for mode of α-glucosidase inhibition: Lineweaver-Burk plot; for Ki: pNPG 0.5–2.0 mM, 37 °C, 15 min
Method: Optimal amounts of compounds 1 and 2 used were determined based on the enzyme inhibitory activity assay.

[2] = biological target: α-glucosidase; assay: α-Glucosidase inhibitory effect assay with pNPG as substrate; type: biochemical; conditions: 37 °C, 15 min, pH 6.8, read-out: IC50, α-glucosidase inhibition
Method: The inhibitory effects were assayed as described preciously. The sample was dissolved in sodium phosphate buffer (PBS, pH 6.8) at three concentrations. A volume of 10 μL of the sample solution, 20 μL of PBS and 20 μL of […] p-nitrophenyl-α-D-glucopyranoside (pNPG) solution (in phosphate buffer) were mixed in a 96-well microplate and incubated at 37 °C for 5 min. […] After incubating at 37 °C for 15 min, the absorbance at 405 nm was recorded by a Spectra max 190 micro plate reader (Molecular Devices Inc.).

[3] = system: murine small intestinal IEC-6 cells; assay: Cytotoxic assay by MTT method; type: cell-based; conditions: for selectivity index (SI): CC50 (IEC-6) relative to IC50 (α-glucosidase)
Method: (§1) The cytotoxicity on murine small intestinal IEC-6 cells were assayed by MTT (3-[4,5-dimethyl thiazol-2-yl]-2,5-diphenyl tetrazolium bromide) method. The IEC-6 cells were cultured in Dulbecco’s modified Eagle’s medium (DMEM) supplemented with 5% fetal bovine serum (FBS) under a humidified atmosphere of 5% CO2 and 95% air at 37 °C. Cell suspension, 100 μL, at a density of 2 × 10^4 cell mL^−1 was plated in 96-well microtiter plates and exposed to different concentrations of compounds in triplicate for 72 h. The initial concentrations of compounds were 2 mg/mL in DMSO, and then were diluted into 625, 125, 25, 5, and 1 μg/mL with RPMI-1640 medium, respectively. The experiments were divided into blank control, testing compounds and the positive control groups, and each group was set up three parallels. Then, 10 μL of PBS containing MTT (final concentration: 0.5 mg/mL) was added to each well. After 4 h incubation at 37 °C, the supernatant was removed and 200 μL of DMSO was added to each well to solubilize the formazan crystals. After vigorous shaking, absorbance values were measured in a microplate reader (Bio-Rad, USA) at 570 nm. The cytotoxicity was represented at these concentrations as [(ODblank − ODdrug)/ODblank × 100%]. The CC50 value, defined as the compound concentration necessary to induce cell cytotoxicity by 50%, was calculated by SPSS (Statistical Product and Service Solutions) v19.0 software.

[4] = Cytotoxic assay by MTT method; type: cell-based, murine; conditions: murine, IEC-6 small intestinal cells, MTT, 72 h exposure; read-out: CC50, cytotoxicity on IEC-6 cell line
Method: as §1

| Compound | mode of α-glucosidase inhibition [1] | Ki [1] | IC50 [2] | selectivity index (SI) [3] | CC50 at 72 h [4] | CC50 ([3]; MTT, 72 h exposure, read-out: CC50, cytotoxicity on IEC-6 cell line) |
| --- | --- | --- | --- | --- | --- | --- |
| O=C1C[C@](O)(c2ccccc2)[C@@H](c2cc(O)c(Cc3c(O)cc(-c4c(-c5ccccc5)cc(O)c5c(O)cccc45)oc3=O)c(=O)o2)c2cccc(O)c21 [Compound 1, Wailupemycin H] | competitive | 16.8 µM | 19.7 µM | 14.2 | 280 µM | – |
| O=C1C[C@](O)(c2ccccc2)[C@H](c2cc(O)c(Cc3c(O)cc(-c4c(-c5ccccc5)cc(O)c5c(O)cccc45)oc3=O)c(=O)o2)c2cccc(O)c21 [Compound 2, Wailupemycin I] | competitive | 6 µM | 8.3 µM | 158.5 | 1320 µM | – |
| O=C1CC(O)(c2ccccc2)C(c2cc(O)cc(=O)o2)c2cccc(O)c21 (stereo not shown) [Compound 3, Wailupemycin D] | – | – | 989 µM | 2.8 | 2750 µM | – |
| O=C1CC(O)(c2ccccc2)C(c2cc(O)cc(=O)o2)c2cccc(O)c21 (stereo not shown) [Compound 4, Wailupemycin E] | – | – | 392 µM | 7.6 | – | 2980 µM |
| O=c1cc(O)cc(-c2c(-c3ccccc3)cc(O)c3c(O)cccc23)o1 [Compound 5, wailupemycin G] | – | – | 239 µM | 12.3 | 2950 µM | – |
